Results published in US10266526B2, “Substituted 1,2,3-triazoles as SMYD inhibitors for treating cancer” (EPIZYME, INC., priority 2014, dated 2019).

Biological target: SMYD3 (Homo sapiens (Human), UniProt Q9H7B4)
Assay: SMYD3 biochemical assay (SMYD3 enzyme assay on MEKK2 protein substrate, 3H-SAM scintillation proximity assay)
Details: read-out: SMYD3 Biochem IC50
Summary of the method: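 Detection used scintillation proximity beads to capture ³H-methylated GST-MEKK2 after quench with 100 uM final cold SAM. The reaction was started by SAM/MEKK2 addition after a 30 min RT compound–enzyme preincubation. Enzyme was tag-free full-length human SMYD3 from E. coli, in buffer of 25 mM Tris-Cl pH 8.0, 1 mM TCEP, 0.005% BSG, 0.005% Tween 20.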

SMYD3, sequence (Q9H7B4 whole entry): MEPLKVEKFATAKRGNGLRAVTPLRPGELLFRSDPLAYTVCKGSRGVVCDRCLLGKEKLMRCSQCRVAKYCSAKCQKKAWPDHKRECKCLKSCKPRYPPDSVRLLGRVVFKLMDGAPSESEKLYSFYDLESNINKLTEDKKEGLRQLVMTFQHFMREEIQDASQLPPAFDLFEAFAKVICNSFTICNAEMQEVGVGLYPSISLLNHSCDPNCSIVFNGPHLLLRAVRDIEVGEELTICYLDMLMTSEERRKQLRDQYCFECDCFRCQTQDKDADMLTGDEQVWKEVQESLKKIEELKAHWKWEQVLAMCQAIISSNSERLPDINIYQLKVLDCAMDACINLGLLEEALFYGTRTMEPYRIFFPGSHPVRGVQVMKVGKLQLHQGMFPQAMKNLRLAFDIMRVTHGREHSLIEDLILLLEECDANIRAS

`Cc1cnc(C(=O)N[C@H]2CC[C@H](N)CC2)cn1` [compound 186, N-((1r,4r)-4-aminocyclohexyl)-5-methylpyrazine-2-carboxamide] and `N[C@H]1CC[C@H](NC(=O)c2cncc(O)c2)CC1` [compound 515, N-((1r,4r)-4-aminocyclohexyl)-5-hydroxynicotinamide] cannot be ordered by IC50: greater than 100 µM for the first, greater than 50 µM for the second.

Going from `NCCC(=O)N[C@H]1CC[C@H](NC(=O)c2ccnc(N)c2)CC1` [compound 321, 2-amino-N-((1r,4r)-4-(3-aminopropanamido)cyclohexyl)isonicotinamide] to `Cc1cccc2cc(C(=O)N[C@H]3CC[C@H](NC(=O)CCN)CC3)[nH]c12` [compound 342, N-((1r,4r)-4-(3-aminopropanamido)cyclohexyl)-7-methyl-1H-indole-2-carboxamide], the IC50 rises from 16.6 µM to 37.7 µM (2.3-fold). The first is the more potent here.

`CC(NC(=O)c1cc2ccccc2n1C)C1CCN(C(=O)[C@H](C)N)CC1` (stereo partly drawn) [compound 244, N-(1-(1-(L-alanyl)piperidin-4-yl)ethyl)-1-methyl-1H-indole-2-carboxamide] and `CC(NC(=O)c1c[nH]c2ccccc12)C1CCN(C(=O)[C@H](C)N)CC1` (stereo partly drawn) [compound 268, N-(1-(1-(L-alanyl)piperidin-4-yl)ethyl)-1H-indole-3-carboxamide] cannot be ordered by IC50: greater than 100 µM for the first, greater than 100 µM for the second.

`N[C@H]1CC[C@H](NC(=O)c2cccc3c2OC(F)(F)O3)CC1` [compound 307, N-((1r,4r)-4-aminocyclohexyl)-2,2-difluorobenzo[d][1,3]dioxole-4-carboxamide] and `Cn1nccc1C(=O)N[C@H]1CC[C@H](N)CC1` [compound 415, N-((1r,4r)-4-aminocyclohexyl)-1-methyl-1H-pyrazole-5-carboxamide] cannot be ordered by IC50: greater than 100 µM for the first, greater than 100 µM for the second.

Going from `Cc1cnccc1C(=O)NC(C)C1CCN(C(=O)[C@H](C)N)CC1` (stereo partly drawn) [compound 254, N-(1-(1-(L-alanyl)piperidin-4-yl)ethyl)-3-methylisonicotinamide] to `CC(NC(=O)c1cccnc1O)C1CCN(C(=O)[C@H](C)N)CC1` (stereo partly drawn) [compound 409, N-(1-(1-(L-alanyl)piperidin-4-yl)ethyl)-2-hydroxynicotinamide], the IC50 falls from greater than 100 µM to 70.4 µM.

Going from `CC(NC(=O)[C@H]1C[C@H](O)CN1)C1CCN(C(=O)[C@H](C)N)CC1` (stereo partly drawn) [compound 433, (2R,4S)-N-(1-(1-(L-alanyl)piperidin-4-yl)ethyl)-4-hydroxypyrrolidine-2-carboxamide] to `CC(NC(=O)C1=NNC(=O)CC1)C1CCN(C(=O)[C@H](C)N)CC1` (stereo partly drawn) [compound 311, N-(1-(1-(L-alanyl)piperidin-4-yl)ethyl)-6-oxo-1,4,5,6-tetrahydropyridazine-3-carboxamide], the IC50 rises from 45.6 µM to greater than 100 µM.

`CC(NC(=O)c1cc(C(C)(C)C)nn1C)C1CCN(C(=O)[C@H](C)N)CC1` (stereo partly drawn) [compound 260, N-(1-(1-(L-alanyl)piperidin-4-yl)ethyl)-3-(tert-butyl)-1-methyl-1H-pyrazole-5-carboxamide] and `CC(NC(=O)c1ccc2cnccc2c1)C1CCN(C(=O)[C@H](C)N)CC1` (stereo partly drawn) [compound 194, N-(1-(1-(L-alanyl)piperidin-4-yl)ethyl)isoquinoline-6-carboxamide] cannot be ordered by IC50: greater than 100 µM for the first, greater than 100 µM for the second.

`CC(NC(=O)c1cccc2[nH]ccc12)C1CCN(C(=O)[C@H](C)N)CC1` (stereo partly drawn) [compound 248, N-(1-(1-(L-alanyl)piperidin-4-yl)ethyl)-1H-indole-4-carboxamide] and `Cc1c(C(=O)NC(C)C2CCN(C(=O)[C@H](C)N)CC2)nnn1-c1ccccc1` (stereo partly drawn) [compound 217, N-(1-(1-(L-alanyl)piperidin-4-yl)ethyl)-5-methyl-1-phenyl-1H-1,2,3-triazole-4-carboxamide] cannot be ordered by IC50: greater than 100 µM for the first, greater than 100 µM for the second.

Going from `NCCC(=O)N[C@H]1CC[C@H](NC(=O)c2cc(=O)c3ccccc3o2)CC1` [compound 327, N-((1r,4r)-4-(3-aminopropanamido)cyclohexyl)-4-oxo-4H-chromene-2-carboxamide] to `NCCC(=O)N[C@H]1CC[C@H](NC(=O)c2cc3cc(Cl)ccc3[nH]2)CC1` [compound 230, N-((1r,4r)-4-(3-aminopropanamido)cyclohexyl)-5-chloro-1H-indole-2-carboxamide], the IC50 falls from greater than 100 µM to 37.5 µM.

Going from `CC(NC(=O)CCCn1ccnc1)C1CCN(C(=O)[C@H](C)N)CC1` (stereo partly drawn) [compound 241, N-(1-(1-(L-alanyl)piperidin-4-yl)ethyl)-4-(1H-imidazol-1-yl)butanamide] to `COc1ccc2cc(C(=O)N[C@H]3CC[C@H](N)CC3)ccc2c1` [compound 276, N-((1r,4r)-4-aminocyclohexyl)-6-methoxy-2-naphthamide], the IC50 rises from 82.9 µM to greater than 100 µM. The first is the more potent here.

In the case of `N[C@H]1CC[C@H](NC(=O)C2C[C@@H]3C=C[C@H]2C3)CC1` (stereo partly drawn) [compound 417, (1r,4r)-N-((1r,4R)-4-aminocyclohexyl)bicyclo[2.2.1]hept-5-ene-2-carboxamide], the IC50 is reported as greater than 100 µM.

Same assay, conditions: read-out: SMYD3 Biochem IC50 (μM)*

Going from `Cc1cc2[nH]c(C(=O)NC3CCNCC3)cc2o1` [compound 58, 2-methyl-N-(piperidin-4-yl)-4H-furo[3,2-b]pyrrole-5-carboxamide] to `N[C@H]1CC[C@H](NC(=O)c2ccc3ncsc3c2)CC1` [compound 118, N-((1r,4r)-4-aminocyclohexyl)benzo[d]thiazole-6-carboxamide], the IC50 rises from 76.1 µM to 139 µM (1.8-fold).

Going from `CC(=O)Nc1ccc(S(=O)(=O)N2CCC(NC(=O)c3cc[nH]n3)CC2)cc1` [compound 6, N-(1-((4-acetamidophenyl)sulfonyl)piperidin-4-yl)-1H-pyrazole-3-carboxamide] to `CN1C(=O)Cc2cc(C(=O)NC3CCN(C(=O)[C@@H](N)Cc4c[nH]c5ccccc45)CC3)ccc21` [compound 83, N-(1-(L-tryptophyl)piperidin-4-yl)-1-methyl-2-oxoindoline-5-carboxamide], the IC50 falls from greater than 100 µM to 12.9 µM. The second is the more potent here.

Compared with `C[C@H](N)C(=O)N1CCC(F)(CNC(=O)c2ccc3c(c2)CC(=O)N3)CC1` [compound 113, N-((1-(L-alanyl)-4-fluoropiperidin-4-yl)methyl)-2-oxoindoline-5-carboxamide], `C[C@@H](N)C(=O)N1CC[C@H](CNC(=O)c2ccc3c(c2)CC(=O)N3)C1` [compound 177, N-(((R)-1-(D-alanyl)pyrrolidin-3-yl)methyl)-2-oxoindoline-5-carboxamide] is 5.1-fold higher in IC50: 3.86 µM for the first, 19.8 µM for the second. The first is the more potent here.

Going from `C[C@@H](N)C(=O)NCCCCNC(=O)c1ccc2c(c1)CC(=O)N2` [compound 114, (R)-N-(4-(2-aminopropanamido)butyl)-2-oxoindoline-5-carboxamide] to `O=C1Cc2cc(C(=O)NCC3(O)CCNCC3)ccc2N1` [compound 105, N-((4-hydroxypiperidin-4-yl)methyl)-2-oxoindoline-5-carboxamide], the IC50 rises from 22.3 µM to 40.4 µM (1.8-fold).

Going from `N[C@H]1CC[C@H](NC(=O)c2nnc[nH]2)CC1` [compound 127, N-((1r,4r)-4-aminocyclohexyl)-4H-1,2,4-triazole-3-carboxamide] to `NCCC(=O)N[C@H]1CC[C@H](NC(=O)c2ccncc2)CC1` [compound 139, N-((1r,4r)-4-(3-aminopropanamido)cyclohexyl)isonicotinamide], the IC50 rises from 16.4 µM to greater than 100 µM. The first is the more potent here.

Compared with `NCCC(=O)N[C@H]1CC[C@H](NC(=O)c2ccc3cnccc3c2)CC1` [compound 165, N-((1r,4r)-4-(3-aminopropanamido)cyclohexyl)isoquinoline-6-carboxamide], `CCc1ccc(C(=O)Nc2ccc(CN)cc2)s1` [compound 56, N-(4-(aminomethyl)phenyl)-5-ethylthiophene-2-carboxamide] is 8.9-fold higher in IC50: 15.5 µM for the first, 138 µM for the second.
